Where a name gives a salt, the structure may show the parent alone.
How the values were obtained:
V79 cells = assay: Protection of V79 cells against the toxicity of H2O2 (neutral red technique); type: cell-based; settings: for IC50: Cricetulus griseus, 1 hour contact with compound, then 30 μM H2O2 for one hour, cell number after 72 hours by neutral red, read-out: Result (concentration inducing 50% protection), IC50
Procedure: The activity of the compounds was evaluated by their ability to protect V79 cells against the toxicity of H2O2, a technique conventionally used to evaluate the effectiveness of antioxidants or iron-chelating agents.
V79 cells were subcultured in DMEM (Dulbecco Modified Essential Medium) medium supplemented with 10% of foetal calf serum, streptomycin, penicillin and glutamine at 37° C. under an atmosphere of 95% air+5% CO2.
The cells were subsequently seeded at a density of 5×10^3/ml in 96-well plates.
After 24 hours, the cells were rinsed and then incubated with the test compounds at different concentrations.
After a contact time of 1 hour, 30 μM of H2O2 were added and incubated at 37° C. for a further one hour.
The cells were subsequently rinsed and then again brought into contact with the supplemented medium described above.
After 72 hours, the number of cells was evaluated in each well by using the neutral red technique.
The protective effect is assessed by the IC50, which measures the concentration which induces 50% protection against cytotoxicity in comparison with the wells treated only with H2O2.

[1] = Solubility limit noted in the V79 protection test; type: physicochemical; settings: beyond 1 mM

Structure (SMILES)	IC50 (V79 cells) [µM]	solubility of compound in the test [1]	protection against H2O2 cytotoxicity (V79 cells; compound at 10 mM, 30 μM H2O2)
COc1cc(CN(CCN(CC(=O)OCOC(C)=O)Cc2cc(OC)c(OC)c(OC)c2)CC(=O)OCOC(C)=O)cc(OC)c1OC [Example 1, bis(acetoxymethyl) [N,N′-bis(3,4,5-trimethoxybenzyl)]-ethylenediamine-N,N′-diacetate]	10	–	–
COC(=O)CN(CCN(CC(=O)OC)Cc1cc(OC)c(OC)c(OC)c1)Cc1cc(OC)c(OC)c(OC)c1 [Comparative 2]	> 1000	insoluble beyond this point)	–
COc1cc(CN(CCN(CC(=O)O)Cc2cc(OC)c(OC)c(OC)c2)CC(=O)O)cc(OC)c1OC [Comparative 1, the dihydrochloride of N,N′-bis(3,4,5-trimethoxybenzyl)ethylenediamine-N,N′-diacetic acid]	–	–	25% protection only at 10 mM

Source: patent US6482855B2, “Diamine alkylene diacetic or triacetic acid derivatives, preparation method, use in cosmetic and pharmaceutical compositions and compositions containing them” (L'Oreal S.A., priority 1997, dated 2002)
